From patent US11903936B2, “Anti-malarial agents” (THE BOARD OF REGENTS OF THE UNIVERSITY OF TEXAS SYSTEM, priority 2019, dated 2024)
≈ marks a conversion by molar mass, not a printed value. Read-outs that look alike come from different tables or passages of the source. Each block holds one compound with its values, some of them ahead of it.

Tests used:
P. vivax DHODH = P. vivax DHODH (Plasmodium vivax, UniProt A5K1N1); test: biochemical; type: biochemical
Human DHODH = Human DHODH (Homo sapiens (Human), UniProt Q02127); test: DHODH kinetic analysis (DCIP assay); type: biochemical; conditions: 25° C.
P. falciparum 3D7 = test: P. falciparum growth and inhibition assay (SYBR Green); type: cell-based; conditions: chloroquine-sensitive 3D7 strain, 72 h, albuMAX media
P. falciparum DHODH = P. falciparum DHODH (Plasmodium falciparum (isolate 3D7), UniProt Q08210); type: biochemical; conditions: 25° C., DCIP assay
in vitro = conditions: human
[1] = test system: P. falciparum clinical isolates; conditions: ex vivo, separate study in Indonesia, previously reported; cited from earlier work
[2] = test system: parasitized human erythrocytes; test: in vivo efficacy in the humanized SCID mouse model; conditions: for DOR (day of recrudescence): 50 mg/kg dose b.i.d. for 6 days; for CED90: estimated average blood concentration that induces no net parasite growth
[3] = test system: P. vivax clinical isolates; conditions: ex vivo, separate study in Indonesia, previously reported; cited from earlier work
Dog DHODH [4] = molecular target: T1, Dog DHODH (Canis lupus familiaris, UniProt A0A8I3MWX2); test: biochemical
Mouse DHODH = Mouse DHODH (Mus musculus (Mouse), UniProt O35435); test: DHODH kinetic analysis (DCIP assay); type: biochemical; conditions: 25° C.
Rat DHODH = Rat DHODH (Rattus norvegicus (Rat), UniProt Q63707); test: DHODH kinetic analysis (DCIP assay); type: biochemical; conditions: 25° C.
Dog DHODH [5] = molecular target: T1, Dog DHODH; conditions: read-out: Dog DHODH IC50; 25° C., DCIP assay
[6] = metabolic stability, Human Clint
physchem = conditions: pH 6.5, fassif
[7] = 25° C., DCIP assay, read-out: P. vivax DHODH IC50

Chain of P. vivax DHODH (A5K1N1 1-572): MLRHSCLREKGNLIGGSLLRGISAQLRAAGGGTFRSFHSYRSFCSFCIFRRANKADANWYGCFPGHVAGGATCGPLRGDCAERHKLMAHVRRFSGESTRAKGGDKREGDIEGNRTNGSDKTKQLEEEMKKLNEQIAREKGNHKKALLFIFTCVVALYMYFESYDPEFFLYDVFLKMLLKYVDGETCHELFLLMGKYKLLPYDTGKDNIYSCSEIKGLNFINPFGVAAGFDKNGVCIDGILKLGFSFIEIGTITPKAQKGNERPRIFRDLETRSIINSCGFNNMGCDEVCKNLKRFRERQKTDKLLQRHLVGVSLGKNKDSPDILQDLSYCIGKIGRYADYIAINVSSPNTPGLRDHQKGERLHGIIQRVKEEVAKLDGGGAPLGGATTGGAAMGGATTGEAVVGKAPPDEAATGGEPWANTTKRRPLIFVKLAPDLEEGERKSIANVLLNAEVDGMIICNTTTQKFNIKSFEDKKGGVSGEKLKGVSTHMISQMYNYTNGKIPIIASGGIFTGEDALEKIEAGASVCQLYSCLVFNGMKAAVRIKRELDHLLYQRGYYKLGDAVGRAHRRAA
T1 sequence (A0A8I3MWX2 1-406): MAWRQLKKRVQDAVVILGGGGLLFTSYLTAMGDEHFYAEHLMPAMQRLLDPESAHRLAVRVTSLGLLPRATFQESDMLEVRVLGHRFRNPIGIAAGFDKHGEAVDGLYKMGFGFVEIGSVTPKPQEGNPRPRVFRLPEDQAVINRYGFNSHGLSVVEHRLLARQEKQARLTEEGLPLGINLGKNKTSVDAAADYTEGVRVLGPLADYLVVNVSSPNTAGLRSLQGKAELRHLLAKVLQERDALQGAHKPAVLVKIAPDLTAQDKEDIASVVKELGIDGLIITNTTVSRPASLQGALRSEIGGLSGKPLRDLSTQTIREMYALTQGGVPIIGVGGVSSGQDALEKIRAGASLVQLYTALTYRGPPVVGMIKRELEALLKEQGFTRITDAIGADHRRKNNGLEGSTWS
Chain of Rat DHODH (Q63707 whole entry): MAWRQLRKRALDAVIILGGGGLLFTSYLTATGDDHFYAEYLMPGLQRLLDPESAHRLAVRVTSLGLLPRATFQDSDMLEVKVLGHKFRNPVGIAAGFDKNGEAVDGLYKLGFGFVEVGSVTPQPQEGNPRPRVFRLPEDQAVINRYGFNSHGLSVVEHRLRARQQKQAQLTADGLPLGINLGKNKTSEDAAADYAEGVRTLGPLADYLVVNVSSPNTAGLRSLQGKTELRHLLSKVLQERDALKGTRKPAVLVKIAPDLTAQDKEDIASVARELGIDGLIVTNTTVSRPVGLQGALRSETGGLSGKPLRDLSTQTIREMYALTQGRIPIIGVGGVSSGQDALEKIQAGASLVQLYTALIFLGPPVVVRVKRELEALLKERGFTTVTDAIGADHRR
Chain of Human DHODH (Q02127 whole entry): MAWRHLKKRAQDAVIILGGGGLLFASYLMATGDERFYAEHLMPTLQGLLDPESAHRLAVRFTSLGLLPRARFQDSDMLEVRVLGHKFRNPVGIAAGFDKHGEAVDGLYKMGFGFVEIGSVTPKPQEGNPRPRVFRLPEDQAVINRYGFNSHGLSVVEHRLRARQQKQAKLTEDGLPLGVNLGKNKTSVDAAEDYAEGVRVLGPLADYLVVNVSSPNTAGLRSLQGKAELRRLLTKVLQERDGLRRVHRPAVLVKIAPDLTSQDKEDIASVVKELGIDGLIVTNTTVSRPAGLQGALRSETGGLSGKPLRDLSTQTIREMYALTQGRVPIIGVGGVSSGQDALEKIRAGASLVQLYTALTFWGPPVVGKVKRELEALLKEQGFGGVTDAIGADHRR
Chain of P. falciparum DHODH (Q08210 24-569 limits assumed): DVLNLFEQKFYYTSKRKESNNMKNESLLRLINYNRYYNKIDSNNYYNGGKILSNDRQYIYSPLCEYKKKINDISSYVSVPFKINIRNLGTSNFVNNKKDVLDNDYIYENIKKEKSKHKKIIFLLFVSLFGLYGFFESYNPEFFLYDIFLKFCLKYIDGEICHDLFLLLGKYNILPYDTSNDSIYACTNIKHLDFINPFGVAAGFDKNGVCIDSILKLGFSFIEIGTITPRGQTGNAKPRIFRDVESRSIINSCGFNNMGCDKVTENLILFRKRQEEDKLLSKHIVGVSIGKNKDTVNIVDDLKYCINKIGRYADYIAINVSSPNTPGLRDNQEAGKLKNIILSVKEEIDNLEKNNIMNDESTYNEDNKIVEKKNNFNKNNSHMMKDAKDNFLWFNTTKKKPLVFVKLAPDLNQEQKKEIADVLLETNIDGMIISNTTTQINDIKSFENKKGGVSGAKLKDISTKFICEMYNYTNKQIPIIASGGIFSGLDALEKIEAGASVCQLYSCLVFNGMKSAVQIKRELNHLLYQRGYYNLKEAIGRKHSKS
Chain of Mouse DHODH (O35435 whole entry): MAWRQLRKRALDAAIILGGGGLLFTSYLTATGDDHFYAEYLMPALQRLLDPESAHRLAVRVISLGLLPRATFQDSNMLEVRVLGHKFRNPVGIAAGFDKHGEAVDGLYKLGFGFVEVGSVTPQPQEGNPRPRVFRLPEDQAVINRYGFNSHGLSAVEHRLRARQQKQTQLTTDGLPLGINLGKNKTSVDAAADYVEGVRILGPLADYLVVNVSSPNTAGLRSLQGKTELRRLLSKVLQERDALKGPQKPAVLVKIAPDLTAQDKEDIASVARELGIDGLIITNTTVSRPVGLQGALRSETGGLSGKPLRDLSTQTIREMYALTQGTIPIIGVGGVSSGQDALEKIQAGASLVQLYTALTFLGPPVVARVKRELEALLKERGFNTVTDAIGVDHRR

Compound: N-(1-(1H-1,2,4-triazol-3-yl) ethyl)-4-(3-fluoro-4-(trifluoromethyl)benzyl)-3-methyl-1H-pyrrole-2-carboxamide [Compound 5]
IC50 (P. vivax DHODH; [7]): 0.061 µM
IC50 (Human DHODH): > 100 µM
EC50 (P. falciparum 3D7): 0.039 µM
IC50 (P. falciparum DHODH): 0.11 µM

Compound: Cc1c(C2(c3ccc(C(F)(F)F)nc3)CC2)c[nH]c1C(=O)NC(C)c1cc(C#N)[nH]n1 (single isomer, unassigned) [Compound 17, N-(1-(5-cyano-1H-pyrazol-3-yl)ethyl)-3-methyl-4-(1-(6-(trifluoromethyl)pyridin-3-yl)cyclopropyl)-1H-pyrrole-2-carboxamide]
IC50 (Human DHODH): > 100 µM
microsomal CLint (in vitro): 16 µL/min/mg

FaSSIF Solubility pH 6.5 5 h (FaSSIF, pH 6.5, 5 h): 5.1 μg/ml
microsomal CLint (in vitro): < 7 µL/min/mg
Compound: Cc1cc(Nc2ccc(S(F)(F)(F)(F)F)cc2)n2nc(C(C)(F)F)nc2n1 [DSM265, 2-(1,1-difluoroethyl)-5-methyl-N-[4-(pentafluoro-λ^6-sulfanyl)phenyl]-[1,2,4]triazolo[1,5-a]pyrimidin-7-amine, reference compound]
EC50 [1]: 0.19 µM
DOR (day of recrudescence) ([2]; SCID mouse): 21
AUCED90 ([2]; SCID mouse, b.i.d. for 6 days): 35.4 μM · h/day
ED90 ([2]; SCID mouse, b.i.d. for 6 days, clears 90% of parasites 24 h post final dose on day 7): 16.7 mg/kg
CED90 ([2]; SCID mouse, b.i.d. for 6 days): 1.48 µM/day
EC50 [3]: 0.92 µM

Compound: Cc1c(C2(c3ccc(C(F)(F)F)nc3)CC2)c[nH]c1C(=O)NC(C)c1cn[nH]c1 (single isomer, unassigned) [Compound 8, N-(1-(1H-pyrazol-4-yl)ethyl)-3-methyl-4-(1-(6-(trifluoromethyl)pyridin-3-yl)cyclopropyl)-1H-pyrrole-2-carboxamide]
IC50 (Human DHODH): > 100 µM
microsomal CLint (in vitro): 66 µL/min/mg

Compound: Cc1c(C2(c3ccc(C(F)(F)F)nc3)CC2)c[nH]c1C(=O)NC(C)c1c[nH]cn1 (single isomer, unassigned) [Compound 20, N-(1-(1H-imidazol-4-yl)ethyl)-3-methyl-4-(1-(6-(trifluoromethyl)pyridin-3-yl)cyclopropyl)-1H-pyrrole-2-carboxamide]
IC50 (Human DHODH): > 100 µM
microsomal CLint (in vitro): 35 µL/min/mg

Compound: Cc1cc(C(C)NC(=O)c2[nH]cc(Cc3ccc(C(F)(F)F)nc3)c2C)no1 (single isomer, unassigned) [Compound 29, 3-methyl-N-(1-(5-methylisoxazol-3-yl)ethyl)-4-((6-(trifluoromethyl)pyridin-3-yl)methyl)-1H-pyrrole-2-carboxamide]
IC50 (Dog DHODH [4]): > 100 µM
IC50 (Human DHODH): > 100 µM
IC50 (Mouse DHODH): > 100 µM
microsomal CLint (in vitro): 29 µL/min/mg
IC50 (Rat DHODH): > 100 µM

Compound: Cc1c(Cc2ccc(C(F)(F)F)nc2)c[nH]c1C(=O)NC(C)c1cn[nH]c1 (stereo not drawn) [Compound 32]
IC50 (Dog DHODH [5]): > 100 µM
Human Clint [6]: 20 μL/min/mg protein
IC50 (P. vivax DHODH; [7]): 0.043 µM
IC50 (Human DHODH): > 100 µM
IC50 (Mouse DHODH): > 100 µM
IC50 (P. falciparum DHODH): 0.047 ± 0.0079 µM
FaSSIF Solubility pH 6.5 5 h (pH 6.5): 34 μg/ml
IC50 (Rat DHODH): > 100 µM

Compound: Cc1c(C2(c3ccc(C(F)(F)F)nc3)CC2)c[nH]c1C(=O)NC(C)c1nc[nH]n1 (single isomer, unassigned) [Compound 2, 3-methyl-N-[1-(1H-1,2,4-triazol-3-yl)ethyl]-4-{1-[6-(trifluoromethyl)pyridin-3-yl]cyclopropyl}-1H-pyrrole-2-carboxamide]
IC50 (Dog DHODH [4]): > 100 µM
IC50 (Human DHODH): > 100 µM
DOR (day of recrudescence) ([2]; SCID mouse): 22
AUCED90 ([2]; SCID mouse, b.i.d. for 6 days): 35.6 μM · h/day
CED90 ([2]; SCID mouse, b.i.d. for 6 days): 1.48 µM/day
ED90 ([2]; mouse, in vivo): 25.6 mg/kg
IC50 (Mouse DHODH): > 100 µM
microsomal CLint (in vitro): 11 µL/min/mg
IC50 (Rat DHODH): > 100 µM

Compound: Cc1c(C2(c3ccc(C(F)(F)F)nc3)CC2)c[nH]c1C(=O)NC(C)c1cc(C(N)=O)[nH]n1 (stereo not drawn) [Compound 14]
IC50 (Dog DHODH [5]): > 100 µM
IC50 (P. vivax DHODH; [7]): 0.17 µM
IC50 (Human DHODH): > 100 µM
IC50 (Mouse DHODH): > 100 µM
IC50 (P. falciparum DHODH): 0.14 ± 0.057 µM
IC50 (Rat DHODH): > 100 µM

Compound: Cc1cc(C(C)NC(=O)c2[nH]cc(C3(c4ccc(C(F)(F)F)nc4)CC3)c2C)n[nH]1 (single isomer, unassigned) [Compound 11, 3-methyl-N-[1-(5-methyl-1H-pyrazol-3-yl)ethyl]-4-{1-[6-(trifluoromethyl)pyridine-3-yl]cyclopropyl}-1H-pyrrole-2-carboxamide]
IC50 (Human DHODH): > 100 µM
microsomal CLint (in vitro): 40 µL/min/mg

Compound: Cc1c(Cc2ccc(C(F)(F)F)nc2)c[nH]c1C(=O)NC(C)c1cnn(C)c1 (single isomer, unassigned) [Compound 35, 3-methyl-N-(1-(1-methyl-1H-pyrazol-4-yl)ethyl)-4-((6-(trifluoromethyl)pyridin-3-yl)methyl)-1 H-pyrrole-2-carboxamide]
solubility (physchem): 60 µg/mL (≈ 153 µM)
IC50 (Dog DHODH [4]): > 100 µM
IC50 (P. vivax DHODH): 0.036 µM
IC50 (Human DHODH): > 100 µM
IC50 (Mouse DHODH): > 100 µM
IC50 (Rat DHODH): > 100 µM
